The text below walks through data of patent US7692014B2, “Inhibitors of the HIV integrase enzyme” (Pfizer, Inc., priority 2004, dated 2010).

Structures are written as SMILES.

The target of the first experiment is T1, Full-length wild type HIV-1 integrase (SF1) (Human immunodeficiency virus type 1 group M subtype B, UniProt P04585).
T1 construct: made in house; host or cells: E. coli BL21 (DE3), pET24a vector
The experiment can be described thus: Integrase strand-transfer scintillation proximity assay. The experiment is classed as biochemical. The settings on record: integrase strand-transfer SPA; read-out: IC50. An excerpt:
Integrase Strand-Transfer Scintillation Proximity Assay Oligonucleotides
The annealed product represents preprocessed viral ds-DNA derived from the LTR U5 sequence of the viral genome. A ds-DNA control to test for non-specific interactions was made using a 3′ di-deoxy derivative of oligonucleotide #1 annealed to oligonucleotide #2. The CA overhang at the 5′ end of the non-biotinylated strand of the ds-DNA was created artificially by using a complimentary DNA oligonucleotide shortened by 2 base pairs. This configuration eliminates the requisite 3′ processing step of the integrase enzyme prior to the strand-transfer mechanism.
Host ds-DNA was prepared as an unlabeled and [^3H]-thymidine labeled product from annealed oligonucleotide #3—5-[…]-3′ (SEQ ID NO: 3), and oligonucleotide #4—5′-[…]-3′ (SEQ ID NO: 4), both synthesized by TriLink BioTechnologies, Inc. (San Diego, Calif.). The annealed product had overhanging 3′ ends of poly(dA). […] The radiolabeled product was purified using a NENSORB cartridge and stored in stabilized aqueous solution (PerkinElmer).
Reagents: Streptavidin-coated polyvinyltoluene (PVT) SPA beads were purchased from Amersham Biosciences (Piscataway, N.J.). Cesium chloride was purchased from Shelton Scientific, Inc. (Shelton, Conn.). White, polystyrene, flat-bottom, non-binding surface, 96-well plates were purchased from Corning. All other buffer components were purchased from Sigma (St. Louis, Mo.) unless otherwise indicated. Enzyme Construction: Full-length wild type HIV-1 integrase (SF1) sequence (amino acids 1-288) was constructed in a pET24a vector (Novagen, Madison, Wis.). […] Enzyme Purification: Full length wild-type HIV Integrase was expressed in E.coli BL21 (DE3) cells and induced with 1 mM isopropyl-1 thio-β-D-galactopyranoside (IPTG) when cells reached an optical density between 0.8-1.0 at 600 nm. Cells were lysed by microfluidation in 50 mM HEPES pH 7.0, 75 mM NaCl, 5 mM DTT, 1 mM 4-(2-Aminoethyl)benzenesulfonylfluoride HCl (AEBSF). Lysate was then centrifuged 20 minutes at 11 k rpm in GSA rotor in Sorvall RC-5B at 4° C. Supernant was discarded and pellet resuspended in 50 mM HEPES pH 7.0, 750 mM NaCl, 5 mM DTT, 1 mM AEBSF and homogenized in a 40 mL Dounce homogenizer for 20 minutes on ice. Homogenate was then centrifuged 20 minutes at 11 k rpm in SS34 rotor in Sorvall RC-5B at 4° C. Supernant was discarded and pellet resuspended in 50 mM HEPES pH 7.0, 750 mM NaCl, 25 mM CHAPS, 5 mM DTT, 1 mM AEBSF. Preparation was then centrifuged 20 minutes at 11 k rpm in SS34 rotor in Sorvall RC-5B at 4° C.
Supernant was then diluted 1:1 with 50 mM HEPES pH 7.0, 25 mM CHAPS, 1 mM DTT, 1 mM AEBSF and loaded onto a Q-Sepharose column pre-equilibrated with 50 mM HEPES, pH 7.0, 375 mM NaCl, 25 mM CHAPS, 1 mM DTT, 1 mM AEBSF. The flow through peak was collected and NaCl diluted to 0.1 M with 50 mM HEPES pH 7.0, 25 mM CHAPS, 1 mM DTT, 0.5 mM AEBSF and loaded onto a SP-Sepharose column pre-equilibrated with 50 mM HEPES pH 7.0, 100 mM NaCl, 25 mM CHAPS, 1 mM DTT, 0.5 mM AEBSF. After washing the column with the equilibration buffer, a 100 to 400 mM NaCl gradient was run. The eluted integrase was concentrated and run on a S-300 gel diffusion column using 50 mM HEPES pH 7.0, 500 mM NaCl, 25 mM CHAPS, 1 mM DTT, 0.5 mM AEBSF. […] All columns were run in a 4° C. cold room.
Viral DNA Bead Preparation: Streptavidin-coated SPA beads were suspended to 20 mg/mL in 25 mM 3-morpholinopropanesulfonic acid (MOPS) (pH 7.2) and 1.0% NaN3.
What is called IC50 is the concentration that gives 50% inhibition. Take `C[C@@H](OCc1cn(Cc2ccc(F)cc2)c2cnc3c(=O)n(O)ccc3c12)c1ccccc1` [Example 38, 3-(4-fluorobenzyl)-7-hydroxy-1-{[(1R)-1-phenylethoxy]methyl}-3,7-dihydro-6H-pyrrolo[2,3-c]-1,7-naphthyridin-6-one]: the 50% inhibitory concentration (IC50) came to 120 nM.

As to `COCCOCc1cn(Cc2ccc(F)cc2)c2cnc3c(=O)n(O)ccc3c12` [Example 9, 3-(4-fluorobenzyl)-7-hydroxy-1-[(2-methoxyethoxy)methyl]-3,7-dihydro-6H-pyrrolo[2,3-c]-1,7-naphthyridin-6-one], the IC50 amounted to 15 nM.

With `O=c1c2ncc3c(c(CN4CCc5ccccc5C4)cn3Cc3ccc(F)cc3)c2ccn1O` [Example 10, 1-(3,4-dihydroisoquinolin-2(1H)-ylmethyl)-3-(4-fluorobenzyl)-7-hydroxy-3,7-dihydro-6H-pyrrolo[2,3-c]-1,7-naphthyridin-6-one], the half-inhibitory concentration (IC50) came out at 40 nM.

For `O=C1c2ncc3c(ccn3Cc3ccc(F)cc3)c2CCCN1O` [Example 3, 3-(4-Fluorobenzyl)-7-hydroxy-7,8,9,10-tetrahydropyrrolo[3′,2′:4,5]pyrido[2,3-c]azepin-6(3H)-one], the IC50 came out at 17 nM.

In the case of `CN(C)S(=O)(=O)c1cn(Cc2ccc(F)cc2)c2cnc3c(=O)n(O)ccc3c12` [Example 23, 3-(4-fluorobenzyl)-7-hydroxy-N,N-dimethyl-6-oxo-6,7-dihydro-3H-pyrrolo[2,3-c]-1-naphthyridine-1-sulfonamide], the IC50 turned out to be 10 nM.

With `O=c1c2ncc3c(c(COC[C@@H](O)CO)cn3Cc3ccc(F)cc3)c2ccn1O` [Example 31, 1-({[(2S)-2,3-dihydroxypropyl]oxy}methyl)-3-(4-fluorobenzyl)-7-hydroxy-3,7-dihydro-6H-pyrrolo(2,3-c]-1,7-naphthyridin-6-one], the IC50 amounted to 9 nM.

`O=c1c2ncc3c(c(S(=O)(=O)NCCc4c[nH]c5ccccc45)cn3Cc3ccc(F)cc3)c2ccn1O` [Example 21, 3-(4-fluorobenzyl)-7-hydroxy-N-{2-(1H-indol-3-yl)ethyl]-6-oxo-6,7-dihydro-3H-pyrrolo[2,3-c]-1,7-naphthyridine-1-sulfonamide]: the IC50 was 46 nM.

On to `O=C1c2ncc3c(ccn3Cc3ccc(F)cc3)c2CCN1O` [Example 2, 3-(4-Fluorobenzyl)-7-hydroxy-3,7,8,9-tetrahydro-6H-pyrrolo[2,3-c]-1,7-naphthyridin-6-one], for which the IC50 stood at 30 nM.

Regarding `O=C(NCC(F)(F)F)c1cn(Cc2ccc(F)cc2)c2cnc3c(=O)n(O)ccc3c12` [Example 30, 3-(4-fluorobenzyl)-7-hydroxy-6-oxo-N-(2,2,2-trifluoroethyl)-6,7-dihydro-3H-pyrrolo[2,3-c]-1,7-naphthyridine-1-carboxamide], the half-inhibitory concentration (IC50) worked out at 13 nM.

For `O=C(c1cn(Cc2ccc(F)cc2)c2cnc3c(=O)n(O)ccc3c12)N1CCCC1` [Example 26, 3-(4-fluorobenzyl)-7-hydroxy-1-(pyrrolidin-1-ylcarbonyl)-3,7-dihydro-6H-pyrrolo[2,3-c]-1,7-naphthyridin-6-one], the half-maximal inhibitory concentration (IC50) was found to be 9 nM.

Another experiment relates to RF strain of HIV-1 in CEM-SS cells. The experiment is described as follows: HIV-1 cell protection assay (XTT dye reduction). Format: cell-based. To be noted: Human immunodeficiency virus 1, CEM-SS, 144 h, HIV-1 RF, six days. The protocol: HIV-1 Cell Protection Assay
The antiviral activities of potential modulator compounds (test compounds) were determined in HIV-1 cell protection assays using the RF strain of HIV-1, CEM-SS cells, and the XTT dye reduction method (Weislow, O. S. et al., J. Natl. Cancer Inst. 81: 577-586 (1989)). Subject cells were infected with HIV-1 RF virus at an moi of 0.025 to 0.819 or mock infected with medium only and added at 2×10^4 cells per well into 96 well plates containing half-log dilutions of test compounds. Six days later, 50 μl of XTT solution (1 mg/ml XTT tetrazolium and […] phenazine methosulfate) were added to the wells and the plates were reincubated for four hours. Viability, as determined by the amount of XTT formazan produced, was quantified spectrophotometrically by absorbance at 450 nm.
Data from CPE assays were expressed as the percent of formazan produced in compound-treated cells compared to formazan produced in wells of uninfected, compound-free cells. […] The therapeutic index was calculated by dividing the cytotoxicity (CC50) by the antiviral activity (EC50).
Background: Formazan colour is commonly taken as a measure of viable cells.
As a reminder, the EC50 is the midpoint of the concentration-response curve. Higher therefore signals weaker potency. In the case of `C[C@@H](OCc1cn(Cc2ccc(F)cc2)c2cnc3c(=O)n(O)ccc3c12)c1ccccc1` [Example 38, 3-(4-fluorobenzyl)-7-hydroxy-1-{[(1R)-1-phenylethoxy]methyl}-3,7-dihydro-6H-pyrrolo[2,3-c]-1,7-naphthyridin-6-one], the midpoint of the response, the EC50, lay at 0.3 nM.

In turn, `COCCOCc1cn(Cc2ccc(F)cc2)c2cnc3c(=O)n(O)ccc3c12` [Example 9, 3-(4-fluorobenzyl)-7-hydroxy-1-[(2-methoxyethoxy)methyl]-3,7-dihydro-6H-pyrrolo[2,3-c]-1,7-naphthyridin-6-one] gave an EC50 of 0.53 nM.
